Numbers after ± are expanded uncertainties. Each block holds one compound with its values, some of them ahead of it.
Legend:
[1] = 298.15 K; 101.33 kPa; Liquid
[2] = excess molar enthalpy (molar enthalpy of mixing); xn = mol fraction of the nth substance listed; settings: 298.15 K, 101.3 kPa, Liquid, Flow calorimetry

mass density [1]: 726.31 ± 0.81 kg/m3
SMILES: CCCCCCCCCC [decane]

mass density [1]: 745.38 ± 0.78 kg/m3
SMILES: CCCCCCCCCCCC [dodecane]

Continued, compound first:

SMILES: COC(C)(C)C [2-methoxy-2-methylpropane]
mass density [1]: 735.69 ± 0.73 kg/m3

SMILES: CCCC(C)C [2-methylpentane]
mass density [1]: 649.78 ± 0.94 kg/m3

SMILES: CCCC(C)C [2-methylpentane] + COC(C)(C)C
excess molar enthalpy ([2]; x2 = 0.0532): 0.00897 ± 0.000335 kcal/mol | excess molar enthalpy ([2]; x2 = 0.1063): 0.0214 ± 0.000454 kcal/mol | excess molar enthalpy ([2]; x2 = 0.1589): 0.0336 ± 0.000574 kcal/mol | excess molar enthalpy ([2]; x2 = 0.2113): 0.0437 ± 0.000669 kcal/mol | excess molar enthalpy ([2]; x2 = 0.2633): 0.0523 ± 0.000765 kcal/mol | excess molar enthalpy ([2]; x2 = 0.315): 0.0597 ± 0.000837 kcal/mol | excess molar enthalpy ([2]; x2 = 0.3658): 0.065 ± 0.000884 kcal/mol | excess molar enthalpy ([2]; x2 = 0.4165): 0.0691 ± 0.000932 kcal/mol | excess molar enthalpy ([2]; x2 = 0.4667): 0.0717 ± 0.000956 kcal/mol | excess molar enthalpy ([2]; x2 = 0.5174): 0.0725 ± 0.000956 kcal/mol | excess molar enthalpy ([2]; x2 = 0.5673): 0.0711 ± 0.000956 kcal/mol | excess molar enthalpy ([2]; x2 = 0.6165): 0.0696 ± 0.000932 kcal/mol | excess molar enthalpy ([2]; x2 = 0.6652): 0.0659 ± 0.000908 kcal/mol | excess molar enthalpy ([2]; x2 = 0.7143): 0.0608 ± 0.000837 kcal/mol | excess molar enthalpy ([2]; x2 = 0.7628): 0.0542 ± 0.000789 kcal/mol | excess molar enthalpy ([2]; x2 = 0.81): 0.0462 ± 0.000693 kcal/mol | excess molar enthalpy ([2]; x2 = 0.8548): 0.0376 ± 0.000621 kcal/mol | excess molar enthalpy ([2]; x2 = 0.906): 0.0257 ± 0.000502 kcal/mol | excess molar enthalpy ([2]; x2 = 0.9531): 0.0136 ± 0.000382 kcal/mol
